Source: ChEMBL document CHEMBL1268984, “N-Substituted acetamidines and 2-methylimidazole derivatives as selective inhibitors of neuronal nitric oxide synthase” (Bioorg Med Chem Lett, 2010)

What was measured:
[1] = Selectivity ratio, ratio of IC50 for mouse macrophage iNOS to IC50 for rat brain nNOS
Nitric oxide synthase 3 = molecular target: T1, Nitric oxide synthase 3 (Bos taurus, UniProt P29473); experiment: Inhibition of bovine eNOS assessed as nitric oxide mediated oxidation of oxyhemoglobin to methemoglobin
T1 sequence (P29473 whole entry): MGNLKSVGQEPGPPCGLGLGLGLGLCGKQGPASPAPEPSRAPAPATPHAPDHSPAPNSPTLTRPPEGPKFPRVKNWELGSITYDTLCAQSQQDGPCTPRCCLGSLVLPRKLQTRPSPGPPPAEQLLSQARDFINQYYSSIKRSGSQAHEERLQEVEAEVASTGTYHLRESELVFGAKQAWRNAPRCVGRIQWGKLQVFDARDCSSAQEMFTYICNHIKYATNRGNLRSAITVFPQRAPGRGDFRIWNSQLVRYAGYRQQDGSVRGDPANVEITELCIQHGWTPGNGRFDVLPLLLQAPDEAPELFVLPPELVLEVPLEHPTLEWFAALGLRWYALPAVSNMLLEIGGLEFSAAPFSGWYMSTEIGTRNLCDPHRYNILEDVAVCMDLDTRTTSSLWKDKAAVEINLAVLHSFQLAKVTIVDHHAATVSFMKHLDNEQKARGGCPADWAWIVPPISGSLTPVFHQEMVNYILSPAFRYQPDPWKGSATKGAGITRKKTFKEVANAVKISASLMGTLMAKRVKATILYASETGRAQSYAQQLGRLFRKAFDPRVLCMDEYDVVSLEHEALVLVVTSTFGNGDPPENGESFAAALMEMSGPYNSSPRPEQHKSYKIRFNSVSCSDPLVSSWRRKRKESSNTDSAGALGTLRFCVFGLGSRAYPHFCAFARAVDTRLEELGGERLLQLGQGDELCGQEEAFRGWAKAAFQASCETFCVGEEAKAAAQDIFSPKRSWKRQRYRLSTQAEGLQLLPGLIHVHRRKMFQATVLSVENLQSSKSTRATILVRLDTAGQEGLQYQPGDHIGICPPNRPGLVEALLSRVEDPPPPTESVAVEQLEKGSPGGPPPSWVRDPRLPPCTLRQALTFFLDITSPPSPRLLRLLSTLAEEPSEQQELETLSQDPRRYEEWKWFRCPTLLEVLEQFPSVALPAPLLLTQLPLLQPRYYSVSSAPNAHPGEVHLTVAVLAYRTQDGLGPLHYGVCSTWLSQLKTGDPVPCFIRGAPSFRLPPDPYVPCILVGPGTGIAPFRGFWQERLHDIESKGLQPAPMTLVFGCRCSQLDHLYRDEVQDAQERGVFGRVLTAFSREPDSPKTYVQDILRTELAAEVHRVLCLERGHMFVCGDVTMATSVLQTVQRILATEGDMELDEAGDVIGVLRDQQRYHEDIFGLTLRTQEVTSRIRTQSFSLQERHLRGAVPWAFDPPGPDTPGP

[2] = molecular target: T2, Nitric oxide synthase, inducible (Mus musculus, UniProt P29477); experiment: Inhibition of mouse macrophage iNOS assessed as nitric oxide mediated oxidation of oxyhemoglobin to methemoglobin
T2 sequence (P29477 whole entry): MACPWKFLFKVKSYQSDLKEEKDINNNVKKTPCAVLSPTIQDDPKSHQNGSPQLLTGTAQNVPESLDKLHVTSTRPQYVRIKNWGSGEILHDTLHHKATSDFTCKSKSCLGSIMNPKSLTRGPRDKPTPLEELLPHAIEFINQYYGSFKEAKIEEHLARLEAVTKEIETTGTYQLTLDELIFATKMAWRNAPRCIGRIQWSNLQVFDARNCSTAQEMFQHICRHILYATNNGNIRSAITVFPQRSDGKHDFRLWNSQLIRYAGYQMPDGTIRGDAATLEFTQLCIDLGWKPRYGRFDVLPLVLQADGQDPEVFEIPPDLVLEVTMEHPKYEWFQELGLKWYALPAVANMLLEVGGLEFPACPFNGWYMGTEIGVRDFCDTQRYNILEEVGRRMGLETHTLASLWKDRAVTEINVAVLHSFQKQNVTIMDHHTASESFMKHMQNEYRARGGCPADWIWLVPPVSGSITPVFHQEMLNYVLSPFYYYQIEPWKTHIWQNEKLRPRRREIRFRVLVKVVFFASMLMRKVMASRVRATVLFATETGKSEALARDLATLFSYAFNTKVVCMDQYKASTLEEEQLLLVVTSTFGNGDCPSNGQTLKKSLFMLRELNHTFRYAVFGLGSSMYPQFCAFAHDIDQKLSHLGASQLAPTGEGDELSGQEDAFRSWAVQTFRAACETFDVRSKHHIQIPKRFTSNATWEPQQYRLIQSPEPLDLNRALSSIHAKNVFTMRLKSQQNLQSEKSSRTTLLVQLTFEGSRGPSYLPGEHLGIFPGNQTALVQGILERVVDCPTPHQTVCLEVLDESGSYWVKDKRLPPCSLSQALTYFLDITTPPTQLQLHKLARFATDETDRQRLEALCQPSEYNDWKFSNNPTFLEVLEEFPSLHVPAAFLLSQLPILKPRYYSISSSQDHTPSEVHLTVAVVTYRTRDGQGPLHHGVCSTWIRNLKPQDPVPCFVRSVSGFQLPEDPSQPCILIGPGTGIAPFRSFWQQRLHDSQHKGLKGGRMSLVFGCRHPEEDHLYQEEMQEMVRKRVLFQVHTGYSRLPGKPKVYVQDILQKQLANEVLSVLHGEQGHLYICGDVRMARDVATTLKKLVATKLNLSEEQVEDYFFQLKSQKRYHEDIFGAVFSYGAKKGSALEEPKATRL

Nitric oxide synthase 1 = Nitric oxide synthase 1 (Rattus norvegicus, UniProt P29476); experiment: Inhibition of rat brain nNOS assessed as nitric oxide mediated oxidation of oxyhemoglobin to methemoglobin
[3] = Selectivity ratio, ratio of IC50 for bovine eNOS to IC50 for rat brain nNOS

Chain of Nitric oxide synthase 1 (P29476 whole entry): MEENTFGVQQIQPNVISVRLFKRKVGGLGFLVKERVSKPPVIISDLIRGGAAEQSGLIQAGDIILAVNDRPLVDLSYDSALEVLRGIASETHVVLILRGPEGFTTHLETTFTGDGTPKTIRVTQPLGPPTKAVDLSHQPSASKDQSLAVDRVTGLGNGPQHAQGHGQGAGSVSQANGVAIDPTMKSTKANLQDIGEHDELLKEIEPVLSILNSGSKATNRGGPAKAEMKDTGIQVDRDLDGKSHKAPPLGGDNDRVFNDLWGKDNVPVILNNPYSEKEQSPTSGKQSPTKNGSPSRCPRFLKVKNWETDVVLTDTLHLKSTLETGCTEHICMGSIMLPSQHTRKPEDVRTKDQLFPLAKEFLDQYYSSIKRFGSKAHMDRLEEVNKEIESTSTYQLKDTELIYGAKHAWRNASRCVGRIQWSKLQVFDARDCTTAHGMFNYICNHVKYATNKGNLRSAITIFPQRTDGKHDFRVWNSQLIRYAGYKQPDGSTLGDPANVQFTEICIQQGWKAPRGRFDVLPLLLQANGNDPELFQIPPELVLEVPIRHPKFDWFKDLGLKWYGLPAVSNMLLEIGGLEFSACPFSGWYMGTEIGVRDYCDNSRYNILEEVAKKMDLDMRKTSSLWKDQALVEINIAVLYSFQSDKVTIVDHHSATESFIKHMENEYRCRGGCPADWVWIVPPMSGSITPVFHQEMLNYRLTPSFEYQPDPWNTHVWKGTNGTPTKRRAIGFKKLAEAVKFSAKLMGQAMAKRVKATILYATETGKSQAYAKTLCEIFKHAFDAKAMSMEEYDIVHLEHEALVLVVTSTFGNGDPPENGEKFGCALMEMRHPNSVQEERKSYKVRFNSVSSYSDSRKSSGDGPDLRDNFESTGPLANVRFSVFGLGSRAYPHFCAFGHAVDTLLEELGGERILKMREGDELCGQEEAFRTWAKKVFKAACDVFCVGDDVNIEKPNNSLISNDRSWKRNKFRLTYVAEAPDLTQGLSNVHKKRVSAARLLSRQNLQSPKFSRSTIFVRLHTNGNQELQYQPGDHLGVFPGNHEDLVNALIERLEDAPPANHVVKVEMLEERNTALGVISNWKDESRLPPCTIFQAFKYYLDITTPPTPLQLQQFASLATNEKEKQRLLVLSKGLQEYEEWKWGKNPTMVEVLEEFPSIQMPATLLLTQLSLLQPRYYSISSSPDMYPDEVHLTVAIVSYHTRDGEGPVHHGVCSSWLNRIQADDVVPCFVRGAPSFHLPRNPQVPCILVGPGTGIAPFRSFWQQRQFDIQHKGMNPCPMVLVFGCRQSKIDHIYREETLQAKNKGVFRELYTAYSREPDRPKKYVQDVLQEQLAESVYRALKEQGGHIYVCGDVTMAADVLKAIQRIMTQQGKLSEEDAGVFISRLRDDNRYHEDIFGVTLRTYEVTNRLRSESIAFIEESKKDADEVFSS

SMILES	Ratio IC50 [1]	IC50 (Nitric oxide synthase 3) [µM]	IC50 [2] [µM]	IC50 (Nitric oxide synthase 1) [µM]	Ratio IC50 [3]
CC(=N)NCc1ccccc1	0.013	350	0.2	150	2.3
Cc1nccn1Cc1ccncc1	2.4	100	12	5	20
CC(=N)NC(c1ccccc1)c1ccccc1	100	350	30	0.3	1170
CC(=N)N[C@@H](C)c1ccccc1	0.003	300	0.45	150	2
CC(=N)NC(c1ccccc1)C(C)C (racemic)	50	100	10	0.2	500
CC(=N)NCc1ccc2c(c1)OCO2	2	400	800	400	1
Cc1nccn1C(C)c1ccccc1 (racemic) [EFETOZOLE]	20	80	100	5	16
CCC(NC(C)=N)c1ccccc1 (racemic)	0.003	80	0.25	90	0.9
Cc1nccn1Cc1ccccc1	10	90	50	5	18
COc1cccc(CNC(C)=N)c1	5	100	50	10	10
